The text below walks through data of patent publication US7816353B2 (Exelixis, Inc., priority 2003, dated 2010).

For this assay, the target named is T1, p70S6K (Homo sapiens, UniProt P23443, T412E).
T1 construct: human p70S6 kinase domain residues 1-421, containing a T412E mutation; made in house
Description: p70S6 Kinase Assay (Luciferase-Coupled Chemiluminescent Kinase assay, LCCA). The following applies: human p70S6 kinase domain residues 1-421, T412E; 5 μM ATP; read-out: p70S6K IC50. The class given is biochemical. As to the method: Kinase activity and compound inhibition are investigated using one or more of the three assay formats described below. The ATP concentrations for each assay are selected to be close to the Michaelis-Menten constant (KM) for each individual kinase. Dose-response experiments are performed at 10 different inhibitor concentrations in a 384-well plate format. […] Y=Min+(Max−Min)/(1+(X/IC50)^H) Equation (2) p70S6 Kinase Assay
Biochemical activity of p70S6 kinase was assessed using a Luciferase-Coupled Chemiluminescent Kinase assay (LCCA) format. Kinase activity was measured as the percent ATP remaining following the kinase reaction. Remaining ATP was detected by luciferase-luciferin-coupled chemiluminescence. […] The mixture is incubated at ambient temperature for 2 hours after which 20 μL luciferase-luciferin mix is added and the chemiluminescent signal read using a Wallac Victor^2 reader.

T1 sequence (P23443 1-421 T412E): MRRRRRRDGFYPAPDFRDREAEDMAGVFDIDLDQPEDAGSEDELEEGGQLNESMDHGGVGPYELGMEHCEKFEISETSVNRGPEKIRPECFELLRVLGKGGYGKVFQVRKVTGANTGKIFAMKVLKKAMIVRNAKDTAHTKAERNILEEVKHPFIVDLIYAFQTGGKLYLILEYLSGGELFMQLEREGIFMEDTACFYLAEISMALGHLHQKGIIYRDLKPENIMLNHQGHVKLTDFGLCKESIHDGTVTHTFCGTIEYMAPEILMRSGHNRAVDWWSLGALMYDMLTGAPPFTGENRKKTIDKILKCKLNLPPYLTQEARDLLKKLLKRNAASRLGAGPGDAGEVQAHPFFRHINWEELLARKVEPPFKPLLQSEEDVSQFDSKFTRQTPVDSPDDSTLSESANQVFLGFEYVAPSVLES

Turning to `CCCOc1nc(N)nc(N(C)[C@@H](C)C(=O)Nc2cccc(C(F)(F)F)c2)c1C#N` [Example 120, N^2-[2-amino-5-cyano-6-(propyloxy)pyrimidin-4-yl]-N^2-methyl-N-[3-(trifluoromethyl)phenyl]-L-alaninamide], the IC50 was greater than 2000 nM.

Turning to `CSc1nc(N)nc(N[C@@H](COCc2ccccc2)C(=O)Nc2cccc(C(F)(F)F)c2)c1C#N` [Example 183, N~2~-[2-amino-5-cyano-6-(methylthio)pyrimidin-4-yl]-O-(phenylmethyl)-N-[3-(trifluoromethyl)phenyl]-L-serinamide], the IC50 is greater than 2000 nM.

For the molecule `CSc1nc(N)nc(N[C@@H](CCCNS(C)(=O)=O)C(=O)Nc2cccc(C(F)(F)F)c2)c1C#N` [Example 198, N~2~-[2-amino-5-cyano-6-(methylthio)pyrimidin-4-yl]-N~5~-(methylsulfonyl)-N-[3-(trifluoromethyl)phenyl]-L-ornithinamide], the IC50 is greater than 2000 nM.

With `CSc1nc(N)nc(N[C@@H](CCCCN(C)C)C(=O)Nc2cccc(C(F)(F)F)c2)c1C#N` [Example 171, N~2~-[2-amino-5-cyano-6-(methylthio)pyrimidin-4-yl]-N~6~,N~6~-dimethyl-N-[3-(trifluoromethyl)phenyl]-L-lysinamide], the IC50 was greater than 2000 nM.

As for `CSc1nc(N(C)C)nc(NCC(=O)Nc2cccc(C(F)(F)F)c2)c1C#N` [Example 71, N^2-[5-cyano-2-(dimethylamino)-6-(methylthio)pyrimidin-4-yl]-N-[3-(trifluoromethyl)phenyl]glycinamide], the IC50 was greater than 2000 nM.

For the molecule `C[C@H](Nc1nc(N)nc(N[C@@H](C)C(=O)Nc2cccc(C(F)(F)F)c2)c1C#N)C(=O)Nc1cccc(C(F)(F)F)c1` [Example 108, 2-{2-amino-5-cyano-6[1-(3-trifluoromethyl-phenylcarbamoyl)-1S-ethylamino]-pyrimidin-4-ylamino}N-(3-trifluoromethyl-phenyl)-2S-propionamide], the IC50 was greater than 2000 nM.

Take `CCOc1nc(N)nc(N[C@@H](CCCNC(=O)OC(C)(C)C)C(=O)Nc2cccc(C(F)(F)F)c2)c1C#N` [Example 128, 1,1-dimethylethyl((4S)-4-{[2-amino-5-cyano-6-(ethyloxy)pyrimidin-4-yl]amino}-5-oxo-5-{[3-(trifluoromethyl)phenyl]amino}pentyl)carbamate]: the IC50 was greater than 2000 nM.

In the case of `CSc1nc(N)nc(NCC(=O)Nc2cccc(C(F)(F)F)c2)c1/C=N/O` [Example 59, N^2-[2-amino-5-[(E)-(hydroxymino)methyl]-6-(methylthio)pyrimidin-4-yl]-N-[3-(trifluoromethyl)phenyl]glycinamide], the IC50 is 500 to 2000 nM.

As for `COCCNc1nc(N[C@@H](C)C(=O)Nc2cccc(C(F)(F)F)c2)c(C#N)c(SC)n1` [Example 116], the IC50 is greater than 2000 nM.

Consider `CSc1nc(NC(C)=O)nc(SCC(=O)Nc2cccc(C(F)(F)F)c2)c1C#N` [Example 41, 2-{[2-(acetylamino)-5-cyano-6-(methylthio)pyrimidin-4-yl]thio}-N-[3-(trifluoromethyl)phenyl]acetamide], for which the IC50 lay in the range of 50 to 500 nM.

In the case of `CSc1nc(N)nc(N(C)CC(=O)Nc2cccc(C)c2)c1C#N` [Example 109, N^2-[2-amino-5-cyano-6-(methylthio)pyrimidin-4-yl]-N^2-methyl-N-(3-methylphenyl)glycinamide], the IC50 was greater than 2000 nM.

Turning to `CCCOc1nc(N)nc(N[C@@H](C)C(=O)Nc2cccc(C(F)(F)F)c2)c1C#N` [Example 115, N^2-[2-amino-5-cyano-6-(propyloxy)pyrimidin-4-yl]-N-[3-(trifluoromethyl)phenyl]-L-alaninamide], the IC50 lay within 50 to 500 nM.

On to `COCCOC(=O)NCCC[C@H](Nc1nc(N)nc(SC)c1C#N)C(=O)Nc1cccc(C(F)(F)F)c1` [Example 126, 2-(methyloxy)ethyl ((4S)-4-{[2-amino-5-cyano-6-(methylthio)pyrimidin-4-yl]amino}-5-oxo-5-{[3-(trifluoromethyl)phenyl]amino}pentyl)carbamate], for which the IC50 was greater than 2000 nM.

In the case of `CCOc1nc(N)nc(N[C@@H](CCCCN(C)C)C(=O)Nc2cccc(C(F)(F)F)c2)c1C#N` [Example 156, N~2~-[2-amino-5-cyano-6-(ethyloxy)pyrimidin-4-yl]-N~6~,N~6~-dimethyl-N-[3-(trifluoromethyl)phenyl]-L-lysinamide], the IC50 is greater than 2000 nM.

Regarding `CSc1nc(N)nc(OC2(C(=O)Nc3cccc(C(F)(F)F)c3)CC2)c1C#N` [Example 69, 1-{[2-amino-5-cyano-6-(methylthio)pyrimidin-4-yl]oxy}-N-[3-(trifluoromethyl)phenyl]cyclopropanecarboxamide], the IC50 lay within 500 to 2000 nM.

`CSc1nc(N)nc(N[C@@H](CCCN/C(N)=N/[N+](=O)[O-])C(=O)Nc2cccc(C(F)(F)F)c2)c1C#N` [Example 111, N^2-[2-amino-5-cyano-6-(methylthio)pyrimidin-4-yl]-N^5-[imino(nitroamino)methyl]-N-[3-(trifluoromethyl)phenyl]-L-omithinamide]: the IC50 was greater than 2000 nM.

As to `COc1nc(N)nc(N[C@@H](C)C(=O)Nc2cccc(C(F)(F)F)c2)c1C#N` [Example 78, N^2-[2-amino-5-cyano-6-(methyloxy)pyrimidin-4-yl]-N-[3-(trifluoromethyl)phenyl]-L-alaninamide], the IC50 is greater than 2000 nM.

On to `C[C@H](Nc1nc(N)ncc1C#N)C(=O)Nc1cccc(C(F)(F)F)c1` [Example 90, N^2-(2-amino-5-cyanopyrimidin-4-yl)-N-[3-(trifluoromethyl)phenyl]-L-alaninamide], for which the IC50 is greater than 2000 nM.

With `CNc1nc(NCC(=O)Nc2cccc(C(F)(F)F)c2)c(C#N)c(SC)n1` [Example 65, N^2-[5-cyano-2-(methylamino)-6-(methylthio)pyrimidin-4-yl]-N-[3-(trifluoromethyl)phenyl]glycinamide], the IC50 lay in the range of 500 to 2000 nM.

As for `CN(C)c1nc(N)nc(SCC(=O)Nc2cccc(C(F)(F)F)c2)c1C#N` [Example 66, 2-{[2-amino-5-cyano-6-(dimethylamino)pyrimidin-4-yl]thio}-N-[3-(trifluoromethyl)phenyl]acetamide], the IC50 lay within 500 to 2000 nM.

As for `CSc1nc(N)nc(N(C)[C@@H](C)C(=O)Nc2cccc(C(F)(F)F)c2)c1C#N` [Example 91, N^2-[2-amino-5-cyano-6-(methylthio)pyrimidin-4-yl]-N^2-methyl-N-[3-(trifluoromethyl)phenyl]-L-alaninamide], the IC50 was greater than 2000 nM.

Regarding `CSc1nc(N)nc(N(CCN(C)C)CC(=O)Nc2cccc(C(F)(F)F)c2)c1C#N` [Example 87, N^2-[2-amino-5-cyano-6-(methylthio)pyrimidin-4-yl]-N^2-[2-(dimethylamino)ethyl]-N-[3-(trifluoromethyl)phenyl]glycinamide], the IC50 is greater than 2000 nM.

Consider `CSc1nc(N)nc(N(C)N(C)C(=O)Nc2cccc(C(F)(F)F)c2)c1C#N` [Example 93, 2-[2-amino-5-cyano-6-(methylthio)pyrimidin-4-yl]-1,2-dimethyl-N-[3-(trifluoromethyl)phenyl]hydrazinecarboxamide], for which the IC50 is greater than 2000 nM.

With `Nc1nc(Cl)c(C=O)c(OCC(=O)Nc2cccc(C(F)(F)F)c2)n1` [Example 50, 2-[(2-amino-6-chloro-5-formylpyrimidin-4-yl)oxy]-N-[3-(trifluoromethyl)phenyl]acetamide], the 50% inhibitory concentration (IC50) fell in the range of 50 to 500 nM.

Broadly, the IC50 is the point on the concentration scale where inhibition reaches its midpoint.
